Experiment: xn = mol fraction of the nth substance listed

COP(=O)([O-])OC.Cn1cc[n+](C)c1 + CCO
Details | viscosity [mPa·s]
293.15 K, 100 kPa, x1 = 0.1005 | 3.24
293.15 K, 100 kPa, x1 = 0.797 | 160.9
293.15 K, 101 kPa, x2 = 0.5028 | 37.73
293.15 K, 101 kPa, x2 = 0.6 | 24.37
293.15 K, 101 kPa, x2 = 0.7999 | 6.29
293.15 K, 101 kPa, x2 = 0.9 | 3.118
298.15 K, 100 kPa, x1 = 0.7009 | 84.1
298.15 K, 100 kPa, x1 = 0.8995 | 169.2
298.15 K, 101 kPa, x1 = 0.2011 | 5.8
298.15 K, 101 kPa, x1 = 0.5056 | 36.2
298.15 K, 101 kPa, x1 = 0.8017 | 132.7
298.15 K, 101 kPa, x2 = 0.4074 | 60.9
298.15 K, 101 kPa, x2 = 0.6 | 21.18
303.15 K, 100 kPa, x1 = 0.1005 | 2.62
303.15 K, 100 kPa, x1 = 0.2006 | 5.25
303.15 K, 100 kPa, x1 = 0.3005 | 9.92
303.15 K, 101 kPa, x2 = 0.0999 | 173.7
303.15 K, 101 kPa, x2 = 0.7999 | 5.01
308.15 K, 100 kPa, x1 = 0.8995 | 94.2
308.15 K, 100 kPa, x1 = 1 | 123.3
308.15 K, 101 kPa, x2 = 0.5028 | 21.92
308.15 K, 101 kPa, x2 = 0.6992 | 9.29
313.15 K, 100 kPa, x1 = 0.4031 | 12.72
313.15 K, 100 kPa, x1 = 0.797 | 54.3
313.15 K, 101 kPa, x1 = 0.2011 | 4.2
313.15 K, 101 kPa, x1 = 0.5056 | 21.2
313.15 K, 101 kPa, x1 = 0.8017 | 60.8
318.15 K, 100 kPa, x1 = 0.3005 | 7.04
318.15 K, 100 kPa, x1 = 0.7009 | 33.29
318.15 K, 100 kPa, x1 = 1 | 72.2
318.15 K, 101 kPa, x2 = 0 | 92.8
318.15 K, 101 kPa, x2 = 0.7999 | 3.702
323.15 K, 100 kPa, x1 = 0.3005 | 6.41
323.15 K, 100 kPa, x1 = 0.7009 | 27.5
323.15 K, 100 kPa, x1 = 0.797 | 35.24
323.15 K, 100 kPa, x1 = 0.8995 | 45.63
323.15 K, 101 kPa, x2 = 0.0999 | 63.7
323.15 K, 101 kPa, x2 = 0.9 | 1.819
328.15 K, 100 kPa, x1 = 0.4996 | 12.51
328.15 K, 100 kPa, x1 = 0.797 | 29.03
333.15 K, 100 kPa, x1 = 0.1005 | 1.36
333.15 K, 100 kPa, x1 = 0.3005 | 5.46
333.15 K, 100 kPa, x1 = 0.7009 | 19.59
333.15 K, 100 kPa, x1 = 0.8995 | 30.39
333.15 K, 101 kPa, x1 = 0.2011 | 2.9
333.15 K, 101 kPa, x1 = 0.5056 | 11.9
333.15 K, 101 kPa, x1 = 0.8017 | 28
338.15 K, 100 kPa, x1 = 0.4996 | 9.9

CCC[NH3+].O=[N+]([O-])[O-] + CC[NH3+].O=[N+]([O-])[O-]
101 kPa, frequency 0.00293 MHz, x2 = 0.5
Details | electrical conductivity [S/m]
293.15 K | 1.2
303.15 K | 1.67
318.15 K | 2.53

101 kPa, x2 = 0.5
Details | viscosity [mPa·s]
293.15 K | 64.5
303.15 K | 44.1
318.15 K | 27.1
353.15 K | 11.5

O=[N+]([O-])[O-].[Li+] + CC[NH3+].O=[N+]([O-])[O-]
Details | electrical conductivity [S/m] | viscosity [mPa·s]
223 K, 100 kPa, x1 = 0.09755 | 0.01 | –
223 K, 100 kPa, x1 = 0.1778 | 0.005 | –
233 K, 100 kPa, x1 = 0.09755 | 0.039 | –
233 K, 100 kPa, x1 = 0.1778 | 0.022 | –
243 K, 100 kPa, x1 = 0.09755 | 0.104 | –
243 K, 100 kPa, x1 = 0.1778 | 0.065 | –
253 K, 100 kPa, x1 = 0.09755 | 0.224 | –
253 K, 100 kPa, x1 = 0.1778 | 0.151 | –
263 K, 100 kPa, x1 = 0.09755 | 0.414 | –
263 K, 100 kPa, x1 = 0.1778 | 0.295 | –
273 K, 100 kPa, x1 = 0.09755 | 0.682 | –
273 K, 100 kPa, x1 = 0.1778 | 0.512 | –
283 K, 100 kPa, x1 = 0.09755 | 1.03 | –
283 K, 100 kPa, x1 = 0.1778 | 0.81 | –
288.15 K, 100 kPa, x1 = 0.09755 | – | 56.2
288.15 K, 100 kPa, x1 = 0.1778 | – | 68.6
293 K, 100 kPa, x1 = 0.09755 | 1.47 | –
293 K, 100 kPa, x1 = 0.1778 | 1.19 | –
293.15 K, 100 kPa, x1 = 0.09755 | – | 46.97
293.15 K, 100 kPa, x1 = 0.1778 | – | 56.13
298.15 K, 100 kPa, x1 = 0.09755 | – | 39.49
298.15 K, 100 kPa, x1 = 0.1778 | – | 46.25
298.15 K, 101 kPa, x2 = 0.8222 | – | 68.1
303 K, 100 kPa, x1 = 0.09755 | 1.99 | –
303 K, 100 kPa, x1 = 0.1778 | 1.67 | –
303.15 K, 100 kPa, x1 = 0.09755 | – | 33.4
303.15 K, 100 kPa, x1 = 0.1778 | – | 38.36
308.15 K, 100 kPa, x1 = 0.09755 | – | 28.4
308.15 K, 100 kPa, x1 = 0.1778 | – | 32.01
313 K, 100 kPa, x1 = 0.09755 | 2.58 | –
313 K, 100 kPa, x1 = 0.1778 | 2.22 | –
313.15 K, 100 kPa, x1 = 0.09755 | – | 24.27
313.15 K, 100 kPa, x1 = 0.1778 | – | 26.86
323 K, 100 kPa, x1 = 0.09755 | 3.23 | –
323 K, 100 kPa, x1 = 0.1778 | 2.86 | –
333 K, 100 kPa, x1 = 0.09755 | 3.95 | –
333 K, 100 kPa, x1 = 0.1778 | 3.58 | –
343 K, 100 kPa, x1 = 0.09755 | 4.73 | –
343 K, 100 kPa, x1 = 0.1778 | 4.36 | –
353 K, 100 kPa, x1 = 0.09755 | 5.54 | –
353 K, 100 kPa, x1 = 0.1778 | 5.21 | –
363 K, 100 kPa, x1 = 0.09755 | 6.4 | –
363 K, 100 kPa, x1 = 0.1778 | 6.11 | –
373 K, 100 kPa, x1 = 0.09755 | 7.29 | –
373 K, 100 kPa, x1 = 0.1778 | 7.06 | –

CCCCCC[n+]1ccn(C)c1.F[B-](F)(F)F + CC[n+]1ccn(C)c1.F[B-](F)(F)F
101 kPa
Details | viscosity [mPa·s]
298.15 K, x2 = 0 | 211
298.15 K, x2 = 0.4061 | 111.8
298.15 K, x2 = 0.793 | 53.76
299.15 K, x2 = 0 | 198.1
299.15 K, x2 = 0.1196 | 162.2
299.15 K, x2 = 0.1803 | 148.6
299.15 K, x2 = 0.3145 | 121.9
299.15 K, x2 = 0.4938 | 91.2
299.15 K, x2 = 0.6006 | 74.7
299.15 K, x2 = 0.793 | 51.53
299.15 K, x2 = 0.9022 | 41.62
301.15 K, x2 = 0.0545 | 155.3
301.15 K, x2 = 0.1803 | 132.9
301.15 K, x2 = 0.8516 | 42.79
301.15 K, x2 = 0.9022 | 38.54
302.15 K, x2 = 0 | 167.2
302.15 K, x2 = 0.1196 | 137.4
302.15 K, x2 = 0.8516 | 41.13
302.15 K, x2 = 0.9022 | 37.08
303.15 K, x2 = 0.5526 | 68.4
303.15 K, x2 = 0.6006 | 62.29
303.15 K, x2 = 0.7059 | 51.99
303.15 K, x2 = 0.793 | 43.73
304.15 K, x2 = 0.7059 | 49.86
304.15 K, x2 = 0.9022 | 34.46
305.15 K, x2 = 0.3145 | 89.6
305.15 K, x2 = 0.4938 | 68.4
305.15 K, x2 = 0.6006 | 57.12
305.15 K, x2 = 0.793 | 40.44
305.15 K, x2 = 0.9022 | 33.23
307.15 K, x2 = 0.793 | 37.44
307.15 K, x2 = 0.9022 | 30.96
308.15 K, x2 = 0.3145 | 77.6
308.15 K, x2 = 0.4938 | 59.86
308.15 K, x2 = 0.6006 | 50.38
308.15 K, x2 = 0.793 | 36.05
308.15 K, x2 = 0.9022 | 29.94

CCCCn1cc[n+](CCOCCOCCOCCOCC[n+]2ccn(CCCC)c2)c1.N#C[N-]C#N.N#C[N-]C#N + CC[n+]1ccn(C)c1.N#C[N-]C#N + O=S(=O)([N-]S(=O)(=O)C(F)(F)F)C(F)(F)F.[Li+]
100 kPa, x1 = 0.2104, x2 = 0.6943
Details | electrical conductivity [S/m]
298 K | 0.471
303 K | 0.549
313 K | 0.79
323 K | 1.05
333 K | 1.37
343 K | 1.67

Reference: the CheMixHub ionic liquid set
